Assay results taken from patent US7012088B2, “Indolone oxazolidinones and derivatives thereof” (Pharmacia & Upjohn Company, priority 2003, dated 2006).
In brackets after ≈: the same amount, converted by molar mass.

What was measured:
S. aureus SAUR 9213 = assay: MIC by standard agar dilution method, S. aureus; format: cell-based; details: Staphylococcus aureus, SAUR9213, Mueller Hinton agar, overnight at 35° C.
Excerpt: (§1) The oxazolidinone antibacterial agents of this invention have useful activity against a variety of organisms. The in vitro activity of compounds of this invention can be assessed by standard testing procedures such as the determination of minimum inhibitory concentration (MIC) by agar dilution as described in “Approved Standard. Methods for Dilution Antimicrobial Susceptibility Tests for Bacteria That Grow Aerobically”, 3rd. ed., published 1993 by the National Committee for Clinical Laboratory Standards, Villanova, Pa., USA. The in vitro MICs of test compounds were determined by a standard agar dilution method. A stock drug solution of each analog was prepared in the preferred solvent, usually DMSO:H2O (1:3). Serial 2-fold dilutions of each sample are made using 1.0 ml aliquots of sterile distilled water. To each 1.0 ml aliquot of drug was added 9 ml of molten Mueller Hinton agar medium. The drug-supplemented agar was mixed, poured into 15×100 mm petri dishes, and allowed to solidify and dry prior to inoculation. Vials of each of the test organisms are maintained frozen in the vapor phase of a liquid nitrogen freezer. Test cultures are grown overnight at 35° C. on the medium appropriate for the organism. Colonies are harvested with a sterile swab, and cell suspensions are prepared in Trypticase Soy broth (TSB) to equal the turbidity of a 0.5 McFarland standard. A 1:20 dilution of each suspension was made in TSB. The plates containing the drug supplemented agar are inoculated with a 0.001 ml drop of the cell suspension using a Steers replicator, yielding approximately 10^4 to 10^5 cells per spot. The plates are incubated overnight at 35° C. Following incubation the Minimum Inhibitory Concentration (MIC μg/ml), the lowest concentration of drug that inhibits visible growth of the organism, was read and recorded.

S. pneumoniae SPNE 9912 = assay: MIC by standard agar dilution method, S. pneumoniae; format: cell-based; details: Streptococcus pneumoniae, SPNE9912, Mueller Hinton agar, overnight at 35° C.
Excerpt: as §1

MIC (S. aureus SAUR 9213) [µg/mL] | MIC (S. pneumoniae SPNE 9912) [µg/mL] | melting point | SMILES
2 (≈ 6.43 µM) | 1 to 2 (≈ 3.21 to 6.43 µM) | 274 to 277 °C (dec.) | CN1C(=O)C(F)(F)c2cc(N3C[C@H](C(N)=O)OC3=O)ccc21 [Example 2, (5R)-(−)-3-(3,3-difluoro-2,3-dihydro-1-methyl-2-oxo-1H-indol-5-yl)-2-oxo-5-oxazolidinecarboxamide]
8 (≈ 22.6 µM) | 2 (≈ 5.66 µM) | 139 to 141 °C | CCN1C(=O)C(F)(F)c2cc(N3C[C@H](CNC(C)=O)OC3=O)ccc21 [Example 6, N-[[(5S)-(−)-3-(3,3-Difluoro-2,3-dihydro-1-ethyl-2-oxo-1H-indol-5-yl)-2-oxo-5-oxazolidinyl]methyl]acetamide]
8 (≈ 24.6 µM) | 4 (≈ 12.3 µM) | 201 to 203 °C | CCN1C(=O)C(F)(F)c2cc(N3C[C@H](C(N)=O)OC3=O)ccc21 [Example 3, (5R)-(−)-3-(3,3-difluoro-2,3-dihydro-1-ethyl-2-oxo-1H-indol-5-yl)-2-oxo-5-oxazolidinecarboxamide]
8 (≈ 23.6 µM) | 4 (≈ 11.8 µM) | 211 to 213 °C | CCN1C(=O)C(F)(F)c2cc(N3C[C@H](C(=O)NC)OC3=O)ccc21 [Example 4, (5R)-(−)-3-(3,3-Difluoro-2,3-dihydro-1-ethyl-2-oxo-1H-indol-5-yl)-N-methyl-2-oxo-5-oxazolidinecarboxamide]
2 (≈ 5.89 µM) | 1 (≈ 2.95 µM) | 125 to 127 °C | CC(=O)NC[C@H]1CN(c2ccc3c(c2)C(F)(F)C(=O)N3C)C(=O)O1 [Example 5, N-[[(5S)-(−)-3-(3,3-Difluoro-2,3-dihydro-1-methyl-2-oxo-1H-indol-5-yl)-2-oxo-5-oxazolidinyl]methyl]acetamide]
2 (≈ 6.15 µM) | 2 (≈ 6.15 µM) | 242.5 to 245 °C | CNC(=O)[C@H]1CN(c2ccc3c(c2)C(F)(F)C(=O)N3C)C(=O)O1 [Example 1, (5R)-(−)-3-(3,3-Difluoro-2,3-dihydro-1-methyl-2-oxo-1H-indol-5-yl)-N-methyl-2-oxo-5-oxazolidinecarboxamide]
